Reference: patent US8759405B2, “Stevia extract or steviol for hair care” (DSM IP Assets B.V., priority 2009, dated 2014)
“Also recorded” adds a separate entry of the source.

How the values were obtained:
[1] = system: aged C57B1/6J mice; assay: Chronic steviol treatment, subjective rating of fur and skin condition pre- and post-treatment; assay type: in vivo; conditions: 120 mg/kg/d in diet, 6 weeks, pre- vs post-treatment
Experimental: FIG. 2 Effects of chronic steviol treatment (120 mg/kg, p.o., 6 weeks) on (a) fur colour and (b) hair loss in aged C57B1/6J mice. […] [table] Female, aged, C57B1/6J mice (22-24 months of age) were assessed for their fur quality at the start and end of a six-week study. Prior to commencement of treatment, photographs were taken of all mice whilst under light anaesthesia (2.2-2.4% isofluorane). Mice were then fed either placebo diet or diet supplemented with steviol (120 mg/kg/d) for six weeks. At the end of the six week treatment phase, mice were again anaesthetised and further photographs were taken. Eleven participants with extensive experience of performing experimental studies using mice were asked to complete the same questionnaire (see Table 1), to enable subjective rating of a number of parameters of fur quality and of the appearance of skin wounds, by assessing the photographs taken before and after treatment. Statistical analyses were performed using Prism 5 (GraphPad Software, La Jolla, Calif., USA) and comprised two-way ANOVA (test factors: Time and Treatment), followed by Bonferroni post-hoc tests, where appropriate.

[2] = system: Human hair follicles; assay: Growth of human hair follicle (length measurements); assay type: cell-based
Experimental: (§1) Human hair follicles were obtained from human skin fragments (obtained by plastic surgery) and grown in supplemented William's E medium supplemented with penicillin/streptomycin, L-glutamine (2 mM/L), insulin (10 μg/mL and hydrocortisone (8 nM/L). Hair follicle growth was assessed via length measurements (days 0, 4, and 7). Triiodothyronine (T3, 30 μM/L) was used as positive control. The effect of steviol (at 0.625-5 μg/mL) was tested in parallel. On day 7, RNA was extracted from hair follicles that had been subjected to different treatments (control, T3, steviol). RNA was processed for Affymetrix® DNA microarray analysis in order to identify effects of compounds on gene expression. Where appropriate, RNA expression levels were further quantified by RT-PCR using the ABI 7900 Taqman instrumentation.

[3] = system: Human hair follicles; assay: Gene expression in human hair follicles by DNA microarray analysis; assay type: cell-based
Experimental: as §1, with “instrumentation. […] Global effects of steviol on gene expression were determined by transcriptomics i.e. DNA microarray analysis. The obtained data were processed with Genedata software tools. […] Thus another aspect of this invention is a method of up-regulating at least one of the genes listed in Table 3 comprising administering steviol and observing a hair growth effect.” for “instrumentation.”

[4] = system: human hair follicle; assay: mRNA level of marker genes in human hair follicle by RT-PCR; assay type: cell-based
Experimental: as §1, with “The effect of steviol (at 0.625-5 μg/mL) was tested in parallel.” left out, “instrumentation. […] The mRNA level of some marker genes involved in growth and/or differentiation of cells in the skin and in hair follicle was further determined by RT-PCR and is shown in Table 4.” for “instrumentation.”

[5] = system: whole mouse skin; assay: Gene expression in whole mouse skin by quantitative RT-PCR after dietary supplementation; assay type: in vivo, mice; conditions: eight weeks
Experimental: The effect of steviol on gene expression was also analysed in whole mouse skin (also containing hair follicles). To this aim, mice were fed a normal diet or a diet supplemented with steviol (see also relevant data above). After eight weeks of supplementation, mice were sacrificed and skin was isolated and freed from hair. Quantitative RT-PCR was performed for selected genes using the same technology as described for hair follicles (see above). Remarkably, we identified changes in expression levels of some genes that are involved in skin physiology and homeostasis.

C=C1C[C@@]23CC[C@H]4[C@@](C)(CCC[C@@]4(C)C(=O)O)[C@@H]2CC[C@]1(O)C3 [Steviol, steviol]
fur colour (greying; subjective rating score) [1]: significantly improved hair colour (i.e. reduced greying); also recorded: significantly improved fur colour | hair loss (subjective rating score) [1]: significantly improved (i.e. reduced) hair loss | hair loss (subjective rating score) ([1]; listed as steviol): significant reduction of hair loss | Growth (% of control) ([2]; 0.625 μg/mL): 122 % of control | Growth (% of control) ([2]; 1.25 μg/mL): 121 % of control | Growth (% of control) ([2]; 2.5 μg/mL): 113 % of control | Growth (% of control) ([2]; 5 μg/mL): 117 % of control | elongation of hair follicles ([2]; 0.625-5 μg/mL): dose-dependently favoured the elongation of hair follicles | Ratio of steviol-treated/untreated: CASP8 and FADD-like apoptosis regulator ([3]; day 7, microarray): 2.58 | Ratio of steviol-treated/untreated: Chemokine (C-X-C motif) ligand 12 (stromal cell-derived factor 1) ([3]; day 7, microarray): 2.22 | Ratio of steviol-treated/untreated: Collagen, type IV, alpha 6 ([3]; day 7, microarray): 2.04 | Ratio of steviol-treated/untreated: Fibroblast growth factor 7 (keratinocyte growth factor) ([3]; day 7, microarray): 2.91 | Ratio of steviol-treated/untreated: Insulin-like growth factor 1 receptor ([3]; day 7, microarray): 2.00 | Ratio of steviol-treated/untreated: Integrin, alpha 6 ([3]; day 7, microarray): 2.15 | Ratio of steviol-treated/untreated: TIMP metallopeptidase inhibitor 3 ([3]; day 7, microarray): 2.32 | Ratio of steviol-treated/untreated: Topoisomerase (DNA) II alpha 170 kDa ([3]; day 7, microarray): 2.45 | Ratio of steviol-treated/untreated: Transmembrane protein with EGF-like and two follistatin-like domains 2 ([3]; day 7, microarray): 3.10 | biological pathways whose gene expression is modulated ([3]; microarray, Genedata pathway mapping): modulated gene expression of the pathways of epidermal development, ectoderm development and keratinocyte differentiation with a high statistical significance | Fold changes (versus control): Integrin alpha-6 ([4]; 0.625 μg/mL): 1.62 ± 0.06 fold | Fold changes (versus control): COX-2 ([4]; 1.25 μg/mL): 0.46 ± 0.17 fold | Fold changes (versus control): HO-1 ([4]; 1.25 μg/mL): 0.64 ± 0.08 fold | Fold changes (versus control): Involucrin ([4]; 1.25 μg/mL): 0.51 ± 0.22 fold | Fold changes (versus control): Keratin 6 ([4]; 10 μg/mL): 1.33 ± 0.11 fold | % of control (based on fold-change): CXC10 [5]: 132 ± 50 % of control | % of control (based on fold-change): IL-6 [5]: 130 ± 31 % of control | % of control (based on fold-change): MMP-8 [5]: 73 ± 23 % of control | % of control (based on fold-change): MMP-13 [5]: 53 ± 9 % of control | % of control (based on fold-change): PPAR-δ [5]: 60 ± 37 % of control
